± gives the expanded uncertainty stated by the source.
Experiment: xn = mol fraction of the nth substance listed
Details: 100 kPa, Liquid; for electrical conductivity: Alternating current cell with electrodes; for viscosity: Cone and plate viscometry; for mass density: Vibrating tube method

C1CC[NH2+]C1.O=[N+]([O-])[O-] [pyrrolidinium nitrate] + CC1COC(=O)O1
Details	electrical conductivity [S/m]	mass density [kg/m3]	viscosity [mPa·s]
258.15 K, x1 = 0.3	0.387 ± 0.031	–	–
260.15 K, x1 = 0.1	0.142 ± 0.011	–	–
260.15 K, x1 = 0.22	0.315 ± 0.025	–	–
262.15 K, x1 = 0.5	0.673 ± 0.054	–	–
263.15 K, x1 = 0.3	0.481 ± 0.038	–	–
266.45 K, x1 = 0.22	0.376 ± 0.03	–	–
268.15 K, x1 = 0.1	0.207 ± 0.017	–	–
268.15 K, x1 = 0.3	0.585 ± 0.047	–	–
268.15 K, x1 = 0.5	0.91 ± 0.073	–	–
270.15 K, x1 = 0.8	0.0803 ± 0.0064	–	–
273.15 K, x1 = 0.1	0.243 ± 0.019	–	–
273.15 K, x1 = 0.22	0.446 ± 0.036	–	–
273.15 K, x1 = 0.3	0.694 ± 0.056	–	–
273.15 K, x1 = 0.5	1.1 ± 0.088	–	–
273.15 K, x1 = 0.8	0.118 ± 0.009	–	–
278.15 K, x1 = 0.1	0.281 ± 0.022	–	–
278.15 K, x1 = 0.22	0.505 ± 0.04	–	–
278.15 K, x1 = 0.3	0.807 ± 0.065	–	–
278.15 K, x1 = 0.5	1.19 ± 0.095	–	–
278.15 K, x1 = 0.8	0.206 ± 0.017	–	–
283.15 K, x1 = 0.1	0.322 ± 0.026	1221 ± 2.4	5.97
283.15 K, x1 = 0.22	0.562 ± 0.045	1225.2 ± 2.5	7.55
283.15 K, x1 = 0.3	0.92 ± 0.074	1227.5 ± 2.5	9.98
283.15 K, x1 = 0.4	–	1229.8 ± 2.5	14.1
283.15 K, x1 = 0.5	1.49 ± 0.12	1231.5 ± 2.5	18.85
283.15 K, x1 = 0.62	–	1233 ± 2.5	23.36
283.15 K, x1 = 0.7	–	1233.3 ± 2.6	28.76
283.15 K, x1 = 0.8	0.352 ± 0.028	1234 ± 2.6	35.56
283.15 K, x1 = 1	–	1235 ± 2.8	58.87
284.15 K, x1 = 1	2.93 ± 0.23	–	–
288.15 K, x1 = 0.1	0.362 ± 0.029	–	–
288.15 K, x1 = 0.22	0.606 ± 0.048	–	–
288.15 K, x1 = 0.3	1.04 ± 0.083	–	–
288.15 K, x1 = 0.5	1.7 ± 0.14	–	–
288.15 K, x1 = 0.8	0.644 ± 0.052	–	–
293.15 K, x1 = 0.1	0.405 ± 0.032	1211 ± 2.4	4.71
293.15 K, x1 = 0.22	0.702 ± 0.056	1215.8 ± 2.4	5.73
293.15 K, x1 = 0.3	1.17 ± 0.093	1218.5 ± 2.4	7.37
293.15 K, x1 = 0.4	–	1221.2 ± 2.5	10.17
293.15 K, x1 = 0.5	1.91 ± 0.15	1223.1 ± 2.5	13.06
293.15 K, x1 = 0.62	–	1225 ± 2.5	17.16
293.15 K, x1 = 0.7	–	1225.6 ± 2.5	20.39
293.15 K, x1 = 0.8	1.44 ± 0.12	1226.5 ± 2.6	24.65
293.15 K, x1 = 1	3.71 ± 0.3	1228 ± 2.7	40.29
298.15 K, x1 = 0.1	0.449 ± 0.036	–	–
298.15 K, x1 = 0.22	0.745 ± 0.06	–	–
298.15 K, x1 = 0.3	1.3 ± 0.1	–	–
298.15 K, x1 = 0.5	2.13 ± 0.17	–	–
298.15 K, x1 = 0.8	2.49 ± 0.2	–	–
298.15 K, x1 = 1	4.22 ± 0.34	–	–
303.15 K, x1 = 0.1	0.497 ± 0.04	1200.9 ± 2.4	3.6
303.15 K, x1 = 0.22	0.832 ± 0.067	1206.4 ± 2.4	4.5
303.15 K, x1 = 0.3	1.44 ± 0.12	1209.5 ± 2.4	5.71
303.15 K, x1 = 0.4	–	1212.6 ± 2.4	7.73
303.15 K, x1 = 0.5	2.37 ± 0.19	1214.9 ± 2.5	9.78
303.15 K, x1 = 0.62	–	1216.9 ± 2.5	12.55
303.15 K, x1 = 0.7	–	1218 ± 2.5	15.17
303.15 K, x1 = 0.8	2.8 ± 0.22	1218.9 ± 2.6	18.53
303.15 K, x1 = 1	–	1220.4 ± 2.7	28.81
304.15 K, x1 = 1	4.94 ± 0.4	–	–
308.15 K, x1 = 0.1	0.546 ± 0.044	–	–
308.15 K, x1 = 0.22	0.93 ± 0.074	–	–
308.15 K, x1 = 0.3	1.59 ± 0.13	–	–
308.15 K, x1 = 0.5	2.62 ± 0.21	–	–
308.15 K, x1 = 0.8	3.13 ± 0.25	–	–
313.15 K, x1 = 0.1	0.597 ± 0.048	1191 ± 2.4	2.66
313.15 K, x1 = 0.22	1.03 ± 0.082	1197 ± 2.4	3.64
313.15 K, x1 = 0.3	1.74 ± 0.14	1200.6 ± 2.4	4.57
313.15 K, x1 = 0.4	–	1204.1 ± 2.4	6.07
313.15 K, x1 = 0.5	2.88 ± 0.23	1206.7 ± 2.4	7.59
313.15 K, x1 = 0.62	–	1209.1 ± 2.5	9.6
313.15 K, x1 = 0.7	–	1210.4 ± 2.5	11.72
313.15 K, x1 = 0.8	3.46 ± 0.28	1212 ± 2.6	14.49
313.15 K, x1 = 1	5.97 ± 0.48	1213.1 ± 2.7	20.91
318.15 K, x1 = 0.1	0.65 ± 0.052	–	–
318.15 K, x1 = 0.22	1.13 ± 0.09	–	–
318.15 K, x1 = 0.3	1.9 ± 0.15	–	–
318.15 K, x1 = 0.5	3.15 ± 0.25	–	–
318.15 K, x1 = 0.8	3.81 ± 0.3	–	–
323.15 K, x1 = 0.1	0.704 ± 0.056	1181.1 ± 2.4	2.24
323.15 K, x1 = 0.22	1.23 ± 0.098	1187.7 ± 2.4	3.04
323.15 K, x1 = 0.3	2.06 ± 0.17	1191.7 ± 2.4	3.75
323.15 K, x1 = 0.4	–	1195.7 ± 2.4	4.91
323.15 K, x1 = 0.5	3.43 ± 0.27	1198.6 ± 2.4	6.07
323.15 K, x1 = 0.62	–	1201.4 ± 2.5	7.57
323.15 K, x1 = 0.7	–	1203 ± 2.5	9.33
323.15 K, x1 = 0.8	4.18 ± 0.33	1204 ± 2.5	10.97
323.15 K, x1 = 1	7.17 ± 0.57	1205.5 ± 2.7	16.7
328.15 K, x1 = 0.1	0.759 ± 0.061	–	–
328.15 K, x1 = 0.22	1.33 ± 0.11	–	–
328.15 K, x1 = 0.3	2.22 ± 0.18	–	–
328.15 K, x1 = 0.5	3.72 ± 0.3	–	–
328.15 K, x1 = 0.8	4.57 ± 0.37	–	–
333.15 K, x1 = 0.1	0.816 ± 0.065	1171.2 ± 2.3	1.91
333.15 K, x1 = 0.22	1.44 ± 0.12	1178.5 ± 2.4	2.57
333.15 K, x1 = 0.3	2.39 ± 0.19	1182.9 ± 2.4	3.14
333.15 K, x1 = 0.4	–	1187.4 ± 2.4	4.06
333.15 K, x1 = 0.5	4.01 ± 0.32	1190.6 ± 2.4	4.97
333.15 K, x1 = 0.62	–	1193.8 ± 2.4	6.15
333.15 K, x1 = 0.7	–	1195.6 ± 2.5	7.61
333.15 K, x1 = 0.8	4.97 ± 0.4	1196.5 ± 2.5	8.83
333.15 K, x1 = 1	8.51 ± 0.68	1197.2 ± 2.7	13.3
338.15 K, x1 = 0.1	0.874 ± 0.07	–	–
338.15 K, x1 = 0.22	1.54 ± 0.12	–	–
338.15 K, x1 = 0.3	2.56 ± 0.2	–	–
338.15 K, x1 = 0.5	4.32 ± 0.35	–	–
338.15 K, x1 = 0.8	5.38 ± 0.43	–	–
343.15 K, x1 = 0.1	0.932 ± 0.075	1161.4 ± 2.3	1.65
343.15 K, x1 = 0.22	1.66 ± 0.13	1169.3 ± 2.3	2.2
343.15 K, x1 = 0.3	2.73 ± 0.22	1174.2 ± 2.4	2.68
343.15 K, x1 = 0.4	–	1179.1 ± 2.4	3.44
343.15 K, x1 = 0.5	4.62 ± 0.37	1182.7 ± 2.4	4.16
343.15 K, x1 = 0.62	–	1186.2 ± 2.4	5.19
343.15 K, x1 = 0.7	–	1188 ± 2.5	6.42
343.15 K, x1 = 0.8	5.8 ± 0.46	1189.5 ± 2.5	7.91
343.15 K, x1 = 1	–	1190.2 ± 2.6	11.17
344.95 K, x1 = 1	9.3 ± 0.74	–	–
348.15 K, x1 = 0.1	0.992 ± 0.079	–	–
348.15 K, x1 = 0.22	1.77 ± 0.14	–	–
348.15 K, x1 = 0.3	2.91 ± 0.23	–	–
348.15 K, x1 = 0.5	4.93 ± 0.39	–	–
348.15 K, x1 = 0.8	6.24 ± 0.5	–	–
353.15 K, x1 = 0.1	1.05 ± 0.084	1151.6 ± 2.3	1.45
353.15 K, x1 = 0.22	1.88 ± 0.15	1160.1 ± 2.3	1.91
353.15 K, x1 = 0.3	3.09 ± 0.25	1165.4 ± 2.3	2.32
353.15 K, x1 = 0.4	–	1170.8 ± 2.4	2.95
353.15 K, x1 = 0.5	5.24 ± 0.42	1174.9 ± 2.4	3.54
353.15 K, x1 = 0.62	–	1178.7 ± 2.4	4.3
353.15 K, x1 = 0.7	–	1180 ± 2.4	5.2
353.15 K, x1 = 0.8	6.68 ± 0.53	1181.5 ± 2.5	6.35
353.15 K, x1 = 1	–	1182 ± 2.6	9.28
353.65 K, x1 = 1	10.5 ± 0.84	–	–
358.15 K, x1 = 0.1	1.11 ± 0.089	–	–
358.15 K, x1 = 0.22	1.99 ± 0.16	–	–
358.15 K, x1 = 0.3	3.19 ± 0.26	–	–
358.15 K, x1 = 0.5	5.55 ± 0.44	–	–
358.15 K, x1 = 0.8	7.12 ± 0.57	–	–
362.15 K, x1 = 0.3	3.35 ± 0.27	–	–
363.15 K, x1 = 0.5	5.83 ± 0.47	–	–
363.15 K, x1 = 0.8	7.57 ± 0.61	–	–

— the NIST ThermoML archive (doi:10.1016/j.jct.2012.11.020)
